Among the data in US20090318412A1, “Tricyclic heterocyclic compound and use thereof” (priority 2006, published 2009) are Emax values, retold here.

The target in this test is serotonin 5-HT2C receptor (Homo sapiens, UniProt P28335, I156V/I160V/N158S). The test is described as follows: cell-based. The note with it: CHO, read-out: ratio to maximum response by 5-HT.

SMILES strings stand for the structures. Where a name gives a salt, the structure may show the parent alone.

serotonin 5-HT2C receptor, sequence (P28335 33-458 I156V/N158S/I160V limits assumed): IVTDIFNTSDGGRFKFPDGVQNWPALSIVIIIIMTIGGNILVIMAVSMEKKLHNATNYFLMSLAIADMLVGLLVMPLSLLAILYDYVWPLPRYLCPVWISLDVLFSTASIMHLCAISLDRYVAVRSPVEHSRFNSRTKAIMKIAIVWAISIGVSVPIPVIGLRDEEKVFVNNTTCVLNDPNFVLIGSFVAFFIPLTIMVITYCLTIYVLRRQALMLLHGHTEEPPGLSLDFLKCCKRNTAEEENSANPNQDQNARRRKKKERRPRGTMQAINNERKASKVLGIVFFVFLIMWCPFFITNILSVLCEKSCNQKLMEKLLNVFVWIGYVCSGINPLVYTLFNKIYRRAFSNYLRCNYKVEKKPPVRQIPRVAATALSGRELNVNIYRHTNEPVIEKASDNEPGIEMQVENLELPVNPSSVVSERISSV

On to `O=C1c2ccccc2OCC2CNCCN12` (stereo not drawn) [Example 1, 1,2,3,4,12,12a-hexahydro-6H-pyrazino[2,1-c][1,4]benzoxazepin-6-one hydrochloride], for which the Emax was determined as 114%.

As to `c1ccc2c(c1)CN1CCNCC1CO2` (stereo not drawn) [Example 2, 1,2,3,4,12,12a-hexahydro-6H-pyrazino[2,1-c][1,4]benzoxazepine dihydrochloride], the Emax was found to be 116%.

Consider `O=C1c2cccc(Cl)c2OCC2CNCCN12` (stereo not drawn) [Example 3, 10-chloro-1,2,3,4,12,12a-hexahydro-6H-pyrazino[2,1-c][1,4]benzoxazepin-6-one hydrochloride], for which the Emax is 98.2%.

As for `O=C1c2c(Cl)cccc2OCC2CNCCN12` (stereo not drawn) [Example 4, 7-chloro-1,2,3,4,12,12a-hexahydro-6H-pyrazino[2,1-c][1,4]benzoxazepin-6-one hydrochloride], the Emax turned out to be 94.6%.

Turning to `O=C1c2ccc(Cl)cc2OCC2CNCCN12` (stereo not drawn) [Example 5, 9-chloro-1,2,3,4,12,12a-hexahydro-6H-pyrazino[2,1-c][1,4]benzoxazepin-6-one hydrochloride], the Emax amounted to 101%.

As for `O=C1c2cc(Cl)ccc2OCC2CNCCN12` (stereo not drawn) [Example 6, 8-chloro-1,2,3,4,12,12a-hexahydro-6H-pyrazino[2,1-c][1,4]benzoxazepin-6-one hydrochloride], the Emax was found to be 99.4%.

As to `Clc1ccc2c(c1)CN1CCNCC1CO2` (stereo not drawn) [Example 7, 8-chloro-1,2,3,4,12,12a-hexahydro-6H-pyrazino[2,1-c][1,4]benzoxazepine dihydrochloride], the Emax is 107%.

Take `O=C1c2cc(C(F)(F)F)ccc2OCC2CNCCN12` (stereo not drawn) [Example 8, 8-(trifluoromethyl)-1,2,3,4,12,12a-hexahydro-6H-pyrazino[2,1-c][1,4]benzoxazepin-6-one hydrochloride]: the Emax worked out at 96.5%.

Turning to `FC(F)(F)c1ccc2c(c1)CN1CCNCC1CO2` (stereo not drawn) [Example 9, 8-(trifluoromethyl)-1,2,3,4,12,12a-hexahydro-6H-pyrazino[2,1-c][1,4]benzoxazepine dihydrochloride], the Emax amounted to 91.5%.

For the molecule `O=C1c2cc(Br)ccc2OCC2CNCCN12` (stereo not drawn) [Example 10, 8-bromo-1,2,3,4,12,12a-hexahydro-6H-pyrazino[2,1-c][1,4]benzoxazepin-6-one hydrochloride], the Emax came to 107%.

For `Cc1ccc2c(c1)C(=O)N1CCNCC1CO2` (stereo not drawn) [Example 13, 8-methyl-1,2,3,4,12,12a-hexahydro-6H-pyrazino[2,1-c][1,4]benzoxazepin-6-one hydrochloride], the Emax was 96.9%.

Regarding `COc1ccc2c(c1)C(=O)N1CCNCC1CO2` (stereo not drawn) [Example 31, 8-methoxy-1,2,3,4,12,12a-hexahydro-6H-pyrazino[2,1-c][1,4]benzoxazepin-6-one hydrochloride], the Emax came to 93.8%.

`Cc1cccc2c1OCC1CNCCN1C2=O` (stereo not drawn) [Example 37, 10-methyl-1,2,3,4,12,12a-hexahydro-6H-pyrazino[2,1-c][1,4]benzoxazepin-6-one hydrochloride]: the Emax was 98.3%.

Take `O=C1c2c(Br)cccc2OCC2CNCCN12` (stereo not drawn) [Example 41, 7-bromo-1,2,3,4,12,12a-hexahydro-6H-pyrazino[2,1-c][1,4]benzoxazepin-6-one hydrochloride]: the Emax came out at 96%.

Take `O=C1c2c(cccc2C(F)(F)F)OCC2CNCCN12` (stereo not drawn) [Example 42, 7-(trifluoromethyl)-1,2,3,4,12,12a-hexahydro-6H-pyrazino[2,1-c][1,4]benzoxazepin-6-one hydrochloride]: the Emax is 88.4%.
